Activity and inhibition data for 13 compounds are collected here from ChEMBL document CHEMBL2321861, “Multifunctional radical quenchers for the treatment of mitochondrial dysfunction” (ACS Med Chem Lett, 2013).

Test [1] can be described thus: Antioxidant activity assessed as suppression of lipid peroxidation at 1 uM relative to control. The test is classed as functional.
The nature of test [2]: Antioxidant activity assessed as suppression of lipid peroxidation at 5 uM relative to control. The test is classed as functional.
Test [3] can be described thus: Inhibition of NADH oxidase (unknown origin) at 1 uM relative to control. The conditions noted are these: Homo sapiens.
Test [4] can be described thus: Inhibition of NADH oxidase (unknown origin) at 5 uM relative to control. The conditions noted are these: Homo sapiens.

As to `CCCCCCCCCCc1c(C)n(O)c(C)c(Cl)c1=O`, the Activity in test [1] and in test [2] was 0% each time.

`CCCCCCCCCCCCCCCCc1c(C)n(O)c(C)cc1=O`: the Activity in test [1] was 10%; in test [2], 20%.

On to `C=Cc1c(C)n(O)c(C)c(CCCCCCCCCCCCCCCC)c1=O`, for which the Activity in test [1] was determined as 7%; in test [2], 13%. Moreover, the inhibition (in general, the change of the read-out against control, counted positive when it falls) in test [3] was found to be 20.1%; in test [4], 12%.

For `CCCCCCCc1c(C)n(O)c(C)c(Br)c1=O`, the Activity in test [1] and in test [2] was 0% throughout.

For the compound `CCCCCCCCCCCCCCCCc1c(C)n(O)c(C)c(N)c1=O`, the Activity in test [1] stood at 18%; in test [2], 94%. Besides, the inhibition in test [3] was determined as 17.1%; in test [4], 12.7%.

Regarding `CCCCCCCCCCCCCCCCc1c(C)n(O)c(C)c(Br)c1=O`, the Activity in test [1] was found to be 7%; in test [2], 15%.

Turning to `CCCCCCCc1c(C)n(O)c(C)cc1=O`, the Activity in test [1] and in test [2] was 0% each time.

For `CCCCCCCc1c(C)n(O)c(C)c(Cl)c1=O`, the Activity in test [1] and in test [2] was 0% in each case.

For the compound `C=Cc1c(C)n(O)c(C)c(CCCCCCC)c1=O`, the Activity in test [1] and in test [2] was 0% throughout. For the same compound, the inhibition in test [3] stood at 29.7%; in test [4], 20.7%.

With `CCCCCCCCCCc1c(C)n(O)c(C)cc1=O`, the Activity in test [1] and in test [2] was 0% throughout.

For the compound `CCCCCCCc1c(C)n(O)c(C)c(N)c1=O`, the Activity in test [1] came to 14%; in test [2] it was 9.6%. Moreover, the inhibition in test [3] stood at 92.9%; in test [4], 76.7%.

As for `CCCCCCCc1c(C)n(O)c(C)c(C(C)=O)c1=O`, the Activity was 11% in test [1] and 2.2% in test [2]. Besides, the figures for the inhibition in test [3] and in test [4] were 74.5% and 44.5%, respectively.

For `CCCCCCCCCCc1c(C)n(O)c(C)c(Br)c1=O`, the Activity in test [1] and in test [2] was 0% throughout.
